Values of other authors, collected in US20050123607A1, “Pharmaceutical formulation of valaciclovir” (priority 2003, published 2005).

What was measured:
[1] = especially in its salt form
[2] = oral administration

CC(C)[C@H](N)C(=O)OCCOCn1cnc2c(=O)[nH]c(N)nc21 [valaciclovir]
solubility (in words) [1]: very soluble | absorption from the gastrointestinal tract / bioavailability (in words) [2]: much improved bioavailability
